Data published in US4196217A, “Hydroxylated amines with bacteriostatic activity” (priority 1978, dated 1980).
≈ marks a conversion by molar mass, not a printed value. Where “and” joins values, the source holds several entries; their conditions need not be identical. Equal values may be shown once. Where a name gives a salt, the structure may show the parent alone. Read-outs that look alike come from different tables or passages of the source.

Experiments:
Bacillus subtilis = assay: bacteriostatic activity (MIC), Bacillus subtilis; format: cell-based
Description: (§1) The medium containing the solution to be tested is inoculated in the form of three single striae with a 10^-5 times dilution of a bacterial culture aged 16 to 18 hours grown in salted peptone broth at a temperature of 37° C.
(§2) After inoculation, the media are stored at 37° C. for 48 hours, after which the bacterial growth is inspected. The MIC (minimum inhibiting concentrations) are expressed in micrograms of pure product per cubic centimeter of gelose medium required for inhibiting the culture (μg/cc). The control substance used is benzalconium chloride.
(§3) Tests were also carried out to determine the bacteriostatic activity of other compounds according to the invention by the method described above and in comparison with known substances, in particular with benzalconium chloride (compound T in the Tables).

Escherichia coli = assay: bacteriostatic activity (MIC), Escherichia coli; format: cell-based
Description: as §1, §2, §3

Pseudomonas aeruginosa = assay: bacteriostatic activity (MIC), Pseudomonas aeruginosa; format: cell-based
Description: as §1, §2, §3

Staphyloccus aureus = assay: bacteriostatic activity (MIC), Staphylococcus aureus; format: cell-based
Description: as §1, §2, §3

Serratia = assay: bacteriostatic activity (MIC), Serratia; format: cell-based; conditions: Table I, 37° C., 48 hours
Description: as §2, with “The medium containing the solution to be tested is inoculated in the form of three single striae with a 10^-5 times dilution of a bacterial culture aged 16 to 18 hours grown in salted peptone broth at a temperature of 37° C. After” for “After”

Proteus vulgaris = assay: bacteriostatic activity (MIC), Proteus vulgaris; format: cell-based; conditions: Table I, 37° C., 48 hours
Description: as §2, with “The medium containing the solution to be tested is inoculated in the form of three single striae with a 10^-5 times dilution of a bacterial culture aged 16 to 18 hours grown in salted peptone broth at a temperature of 37° C. After” for “After”

Pneumobacille = assay: bacteriostatic activity (MIC), Pneumobacille; format: cell-based; conditions: Table I, 37° C., 48 hours
Description: as §2, with “The medium containing the solution to be tested is inoculated in the form of three single striae with a 10^-5 times dilution of a bacterial culture aged 16 to 18 hours grown in salted peptone broth at a temperature of 37° C. After” for “After”

Moraxella glucidolytica = assay: bacteriostatic activity (MIC), Moraxella glucidolytica; format: cell-based; conditions: Table I, 37° C., 48 hours
Description: as §2, with “The medium containing the solution to be tested is inoculated in the form of three single striae with a 10^-5 times dilution of a bacterial culture aged 16 to 18 hours grown in salted peptone broth at a temperature of 37° C. After” for “After”

Enterbacter cloacae = assay: bacteriostatic activity (MIC), Enterbacter cloacae; format: cell-based; conditions: Table I, 37° C., 48 hours
Description: as §2, with “The medium containing the solution to be tested is inoculated in the form of three single striae with a 10^-5 times dilution of a bacterial culture aged 16 to 18 hours grown in salted peptone broth at a temperature of 37° C. After” for “After”

[1] = Bacillus subtilis, 48 h, Table VI, bacteriostase containing 20% of serum, read-out: M.I.C.
[2] = Bacillus subtilis, 48 h, Table VI, bacteriostase without serum, read-out: M.I.C.
[3] = Escherichia coli, 48 h, Table VI, bacteriostase containing 20% of serum, read-out: M.I.C.
[4] = Escherichia coli, 48 h, Table VI, bacteriostase without serum, read-out: M.I.C.
[5] = Pseudomonas aeruginosa, 48 h, Table VI, bacteriostase containing 20% of serum, read-out: M.I.C.
[6] = Pseudomonas aeruginosa, 48 h, Table VI, bacteriostase without serum, read-out: M.I.C.
[7] = Staphylococcus aureus, 48 h, Table VI, bacteriostase containing 20% of serum, read-out: M.I.C.
[8] = Staphylococcus aureus, 48 h, Table VI, bacteriostase without serum, read-out: M.I.C.
[9] = Table I, with 20% of serum, 37° C., 48 hours
[10] = Table I, without serum, 37° C., 48 hours
[11] = Table VI, bacteriostase containing 20% of serum
[12] = Table VI, bacteriostase without serum

## CCCCCCCCCCCCCCOCC(O)CN (stereo not shown) [Compound 9, 3-tetradecyloxy-2-hydroxyamino-1-propane hydrochloride]
solubility; water
  solubility in water: soluble in water
Bacillus subtilis; [1]
  MIC: 30 µg/mL
Bacillus subtilis; [2]
  MIC: 7 µg/mL
Escherichia coli; [3]
  MIC: > 1000 µg/mL
Escherichia coli; [4]
  MIC: > 500 µg/mL
Pseudomonas aeruginosa; [5]
  MIC: 2500 µg/mL
Pseudomonas aeruginosa; [6]
  MIC: 1250 µg/mL
Staphyloccus aureus; [7]
  MIC: 50 µg/mL
Staphyloccus aureus; [8]
  MIC: 10 µg/mL

## CCCCCCCCCCCCCCCCCCOCC(O)CN.Cl (stereo not shown) [Compound 10, 3-octadecyloxy-2-hydroxy-1-aminopropane hydrochloride]
Bacillus subtilis; [1]
  MIC: > 500 µg/mL
Bacillus subtilis; [2]
  MIC: > 300 µg/mL
Escherichia coli; [3]
  MIC: > 1000 µg/mL
Escherichia coli; [4]
  MIC: > 500 µg/mL
Pseudomonas aeruginosa; [5]
  MIC: > 2500 µg/mL
Pseudomonas aeruginosa; [6]
  MIC: 1300 µg/mL
Staphyloccus aureus; [7]
  MIC: > 500 µg/mL
Staphyloccus aureus; [8]
  MIC: > 300 µg/mL

## COCC(O)CN (stereo not shown) [Compound 11]
Bacillus subtilis; [1]
  MIC: > 500 µg/mL
Bacillus subtilis; [2]
  MIC: > 300 µg/mL
Escherichia coli; [3]
  MIC: > 1000 µg/mL
Escherichia coli; [4]
  MIC: > 500 µg/mL
Pseudomonas aeruginosa; [5]
  MIC: > 2500 µg/mL
Pseudomonas aeruginosa; [6]
  MIC: > 1300 µg/mL
Staphyloccus aureus; [7]
  MIC: > 500 µg/mL
Staphyloccus aureus; [8]
  MIC: > 300 µg/mL

## CCOCC(O)CN.Cl (stereo not shown) [Compound 12, 3-ethoxy-2-hydroxy-1-aminopropane hydrochloride]
Bacillus subtilis; [1]
  MIC: > 500 µg/mL
Bacillus subtilis; [2]
  MIC: > 300 µg/mL
Escherichia coli; [3]
  MIC: > 1000 µg/mL
Escherichia coli; [4]
  MIC: > 500 µg/mL
Pseudomonas aeruginosa; [5]
  MIC: > 2500 µg/mL
Pseudomonas aeruginosa; [6]
  MIC: > 1300 µg/mL
Staphyloccus aureus; [7]
  MIC: > 500 µg/mL
Staphyloccus aureus; [8]
  MIC: > 300 µg/mL

## CCCCCCCCCCOCC(O)CN (stereo not shown) [Compound 13, 3-decyloxy-2-hydroxy-1-aminopropane]
Bacillus subtilis; [1]
  MIC: 40 µg/mL (≈ 173 µM)
Bacillus subtilis; [2]
  MIC: 20 µg/mL (≈ 86.4 µM)
Escherichia coli; [3]
  MIC: 250 µg/mL (≈ 1080 µM)
Escherichia coli; [4]
  MIC: 50 µg/mL (≈ 216 µM)
Pseudomonas aeruginosa; [5]
  MIC: 400 µg/mL (≈ 1730 µM)
Pseudomonas aeruginosa; [6]
  MIC: 150 µg/mL (≈ 648 µM)
Staphyloccus aureus; [7]
  MIC: 80 µg/mL (≈ 346 µM)
Staphyloccus aureus; [8]
  MIC: 40 µg/mL (≈ 173 µM)

## CCCCCCCCCCSCC(O)CN (stereo not shown) [Compound 14, 3-decanethio-2-hydroxy-1-aminopropane hydrochloride]
solubility; alcohol
  solubility in alcohol: soluble in alcohol
Bacillus subtilis; [1]
  MIC: 30 µg/mL
Bacillus subtilis; [2]
  MIC: 5 µg/mL
Escherichia coli; [3]
  MIC: 250 µg/mL
Escherichia coli; [4]
  MIC: 50 µg/mL
Pseudomonas aeruginosa; [5]
  MIC: 600 µg/mL
Pseudomonas aeruginosa; [6]
  MIC: 200 µg/mL
Staphyloccus aureus; [7]
  MIC: 70 µg/mL
Staphyloccus aureus; [8]
  MIC: 10 µg/mL

## benzalconium chloride [T, reference compound]
Serratia; with 20% of serum
  MIC: 30 μg/cc
Serratia; without serum
  MIC: 10 μg/cc
Proteus vulgaris; with 20% of serum
  MIC: 75 μg/cc
Proteus vulgaris; without serum
  MIC: 35 μg/cc
Bacillus subtilis; [9]
  MIC: 7.5 μg/cc
Bacillus subtilis; [10]
  MIC: 2.5 μg/cc
Bacillus subtilis; [11]
  M.I.C.: 2.5 μg/cc and 4 μg/cc
Bacillus subtilis; [12]
  M.I.C.: 1 μg/cc and 2 μg/cc and 1.5 μg/cc
Escherichia coli; [9]
  MIC: 300 μg/cc
Escherichia coli; [10]
  MIC: 125 μg/cc
Escherichia coli; [11]
  M.I.C.: 200 μg/cc and 250 μg/cc and 300 μg/cc
Escherichia coli; [12]
  M.I.C.: 125 μg/cc and 150 μg/cc
Pneumobacille; with 20% of serum
  MIC: 75 μg/cc
Pneumobacille; without serum
  MIC: 35 μg/cc
Pseudomonas aeruginosa; [9]
  MIC: 850 μg/cc
Pseudomonas aeruginosa; [10]
  MIC: 600 μg/cc
Pseudomonas aeruginosa; [11]
  M.I.C.: 750 μg/cc and 850 μg/cc and 1200 μg/cc and 1000 μg/cc
Pseudomonas aeruginosa; [12]
  M.I.C.: 500 μg/cc and 600 μg/cc and 700 μg/cc
Moraxella glucidolytica; with 20% of serum
  MIC: 150 μg/cc
Moraxella glucidolytica; without serum
  MIC: 75 μg/cc
Enterbacter cloacae; with 20% of serum
  MIC: 75 μg/cc
Enterbacter cloacae; without serum
  MIC: 20 μg/cc
Staphyloccus aureus; [9]
  MIC: 12 μg/cc
Staphyloccus aureus; [10]
  MIC: 1.5 μg/cc
Staphyloccus aureus; [11]
  M.I.C.: 10 μg/cc and 5 μg/cc
Staphyloccus aureus; [12]
  M.I.C.: 1.5 μg/cc and 1 μg/cc
